# Results from patent US20060040951A1, “Use of 5-ht2 receptor antagonists for the treatment of sleep disorders” (Merck Patent GmbH, priority 2002, published 2006).
# Assays:
# [1] = tested on: rats; test: Example B: EEG sleep-stage recording of non-anaesthetised rats over 12 hours, crossover study versus vehicle; format: in vivo, rat
# Protocol: In order to measure the brain waves, EEG electrodes are implanted into the brain of anaesthetised rats. After a recovery time of 15 days, these electrodes are connected to an amplifier via a flexible cable, and the brain waves of the non-anaesthetised animals are recorded over 12 hours. (3-Cyano-1H-indol-7-yl)-[4-(4-fluorophenethyl)piperazin-1-yl]methanone is dissolved in advance in a concentration of 0.1 ml/100 g of peanut oil. This solution (compound) or, for comparison, merely the solvent (vehicle) is administered orally to the test animals in a dose of 3 mg/kg. From the filtered and amplified brain-wave signals, the sleep stages are evaluated via Fourier spectral analysis including certain criteria. The REM and non-REM sleep stages can be identified with reference to the patterns. The experimental results are shown in Tables 1 (effect of the substance) and 2 (significances of the measurement values). It becomes clear that (3-cyano-1H-indol-7-yl)-[4-(4-fluorophenethyl)piperazin-1-yl]methanone results in a significant extension both of non-REM sleep and of REM sleep and that these extensions are significant.
# This experiment is a crossover study. This means that one and the same animal receives either first solvent (vehicle) and then, after a waiting time of one week, the test substance (3-cyano-1H-indol-7-yl)-[4-(4-fluorophenethyl)piperazin-1-yl]methanone (compound), or the administration is carried out in the reverse sequence.
# The measured values after vehicle or compound administration are compared with one another using the statistical method of analysis of variance (ANOVA). The p value is a statistical measure of the probability that a difference occurs by chance between the measurement values or is caused by the substance administration. According to international standards, a p value of below 0.05 is regarded as “significant”.
# It is clear from FIG. 1 that in particular stages 3 and 4, which are regarded as slow-wave sleep, are extended in non-REM sleep. […] The term delta power or delta waves denotes the “slow” waves recorded in the EEG which are characteristic of slow-wave sleep stages. For each rat, the hour average after solvent (vehicle) treatment was firstly determined and subtracted from the value after substance treatment.
# [2] = tested on: rats; test: Brain-wave (EEG) recording of rats over 6 hours during the dark phase; format: in vivo, rat
# [3] = cited from earlier work
# [4] = rats, 3 mg/kg orally in peanut oil, 12 h recording, average ± standard error
# [5] = rats, 3 mg/kg orally, 12 h recording, average ± standard error
# [6] = 3 mg/kg per os, 6 h recording during dark phase
compound,measurement,setting,value
N#Cc1c[nH]c2c(C(=O)N3CCN(CCc4ccc(F)cc4)CC3)cccc12 [(3-cyano-1H-indol-7-yl)-[4-(4-fluorophenethyl)piperazin-1-yl]methanone],"relative delta power in the rat EEG, difference from the control level","[1]; FIG. 1, as a function of the time of day",significantly increased overall
same,NREM sleep Total Time,[1]; [4],232.8 ± 13.1 min
same,REM sleep Total Time,[1]; [4],45.3 ± 3.8 min
same,Wakefulness Total Time,[1]; [4],440.6 ± 15.1 min
same,Inter-REM interval,[1]; [5],28.8 ± 3.0 min
same,NREM sleep Episode Duration,[1]; [5],184.8 ± 9.5 s
same,REM Latency,[1]; [5],5.2 ± 0.3 min
same,REM sleep Episode Duration,[1]; [5],93.1 ± 6.6 s
same,Wakefulness Episode Duration,[1]; [5],422.5 ± 29.3 s
same,average increase in non-REM sleep,[2]; [6],about 4 min/h
same,maximum increase in non-REM sleep,[2]; [6],about 5 minutes per hour
same,"extension of REM sleep, average",[2]; 6 h dark phase,0.8 min/h
same,"extension of REM sleep, maximum",[2]; 6 h dark phase,2 min/h
same,what the change in REM sleep results from,[2]; 6 h dark phase,increase in the number of REM episodes
CCc1nn(CCCN2CCN(c3cccc(Cl)c3)CC2)c(=O)n1CCOc1ccccc1 [nefazodone],effect on REM sleep,[3]; literature report,extend REM sleep
same,effect on slow-wave phases 3 and 4 of non-REM sleep,[3]; literature report,remain unchanged
O=C1CCC(N2C(=O)c3ccccc3C2=O)C(=O)N1 (centres unmarked) [thalidomide],effect on both sleep phases,[3]; known sleeping drug,extends both sleep phases
"Cc1nnc2n1-c1ccc(Cl)cc1C(c1ccccc1Cl)=NC2 [triazolam, reference compound]",what the change in REM sleep results from,[2]; 6 h dark phase,reduction in the duration of the individual REM phases
same,extension of non-REM sleep,"[2]; dose 0.1 mg/kg, 6 h dark phase",2 min/h
same,extension of non-REM sleep (maximum effect),"[2]; dose 0.4 mg/kg, 6 h dark phase",6.5 min/h
